According to ChEMBL document CHEMBL3217735, “Polyamine-based small molecule epigenetic modulators” (Medchemcomm, 2012):
One block for each compound: values may come before it.

What was measured:
[1] = target: Lysine-specific histone demethylase 1A (Homo sapiens) (UniProt O60341); assay: Inhibition of N-terminal His6-tagged full length human LSD1 expressed in Escherichia coli BL21 (DE3) using H3K4me2 (1 to 21 amino acids) as substrate assessed as production of H2O2 at 1 uM by luminol-dependent chemiluminescence assay relative to control
MCF7 = assay: Cytotoxicity against human MCF7 cells after 96 hrs by MTA reduction assay; format: functional, cell-based; conditions: MCF7, 96 h
[2] = Cytotoxicity against human MCF10A cells after 96 hrs by MTA reduction assay; format: ADME, cell-based; conditions: MCF-10A
[3] = Selectivity ratio of IC50 for human MCF10A cells to IC50 for human MCF7 cells; format: ADME, cell-based, MCF-10A; conditions: MCF10A cells versus MCF7 cells, read-out: Ratio IC50
[4] = target: Histone deacetylase (Homo sapiens) (UniProt Q13547+O15379+Q9UBN7+Q92769+Q9UQL6+Q8WUI4+Q9BY41+Q96DB2+P56524+Q9UKV0+Q969S8); assay: Inhibition of HDAC in human HeLa cells using Fluor de Lys as substrate at 1 uM by fluorescence assay relative to control; format: cell-based

inhibition [1]: 85.1%
SMILES: C/N=C(\NC)NCCCNCCCNCCCN/C(=N/C)NC

SMILES: Cc1ccc(CNCCCCNCCCCCC(=O)NCc2ccc(C(=O)Nc3ccccc3N)cc2)cc1
IC50 (MCF7): 0.9 µM
IC50 [2]: 24 µM
selectivity ratio [3]: > 25

inhibition [4]: 60%
SMILES: CN(C)c1ccc(CN(CCCNCCCCN)C(=O)CCCCC(=O)NO)cc1
